We go through 28 compounds from US20090030024A1, “THIAZOLES AS FUNGICIDES” (priority 2005, published 2009).

Marks after values point to notes of the source that are not given here.

The first data set in a line: logP determination by retention times (calibration with alkan-2-ones).
Settings: not given
One may read the chromatographic logP as lipophilicity estimated from chromatographic retention. The low end stands for a more hydrophilic compound, the high end for a more lipophilic compound. In turn, `Cc1ncsc1-c1ccnc(Nc2cccc(C(F)(F)F)c2)n1` [Example 267, 4-(4-methyl-1,3-thiazol-5-yl)-N-[3-(trifluoromethyl)phenyl]pyrimidine-2-amine] gave a chromatographic logP of 3.14.

The compound `Cc1cc(Nc2nccc(-c3sc(N)nc3C)n2)ccc1F` [Example 207, 4-(2-amino-4-methyl-1,3-thiazol-5-yl)-N-(4-fluoro-3-methylphenyl)pyrimidine-2-amine] yielded a chromatographic logP of 1.68.

The compound `Cc1nc(C(C)C)sc1-c1ccnc(Nc2ccc(N3CCN(C)CC3)cc2)n1` [Example 249, 4-(2-isopropyl-4-methyl-1,3-thiazol-5-yl)-N-[4-(4-methylpiperazin-1-yl)phenyl]pyrimidine-2-amine] displayed a chromatographic logP of 1.71.

On to `CCc1nc(C)c(-c2ccnc(Nc3cccc(O)c3)n2)s1` [Example 150, 3-{[4-(2-ethyl-4-methyl-1,3-thiazol-5-yl)pyrimidin-2-yl]amino}phenol], for which the chromatographic logP came to 2.12.

With `COCCOC(=O)Nc1ccc(Nc2nccc(-c3sc(C(C)C)nc3C)n2)cc1` [Example 74, 2-methoxyethyl-(4-{[4-(2-isopropyl-4-methyl-1,3-thiazol-5-yl)pyrimidin-2-yl]amino}phenyl)carbamate], the chromatographic logP was 2.67.

`COCC(C)Nc1nc(C)c(-c2ccnc(Nc3cc(OC)c(OC)c(OC)c3)n2)s1` (stereo not shown) [Example 332, 4-{2-[(2-methoxy-1-methylethyl)amino]-4-methyl-1,3-thiazol-5-yl}-N-(3,4,5-trimethoxyphenyl)pyrimidine-2-amine] had a chromatographic logP of 1.85.

The compound `COCC(C)Nc1nc(C)c(-c2ccnc(Nc3cccc([N+](=O)[O-])c3)n2)s1` (stereo not shown) [Example 334, 4-{2-[(2-methoxy-1-methylethyl)amino]-4-methyl-1,3-thiazol-5-yl}-N-(3-nitrophenyl)pyrimidine-2-amine] gave a chromatographic logP of 2.2.

Compound `COc1ccc(Nc2nccc(-c3sc(C4CC4)nc3C)n2)cc1OC` [Example 223, 4-(2-cyclopropyl-4-methyl-1,3-thiazol-5-yl)-N-(3,4-dimethoxyphenyl)pyrimidine-2-amine] yielded a chromatographic logP of 2.6.

The same data set, now with this note: * HPLC reversed-phase C18, 40° C., mobile phase 0.1% aqueous formic acid and acetonitrile, linear gradient 10% to 95% acetonitrile.
For `CNc1nc(C)c(-c2ccnc(Nc3cccc(Cl)c3)n2)s1` [Example 434, N-(3-chlorophenyl)-4-[4-methyl-2-(methylamine)-1,3-thiazol-5-yl]pyrimidine-2-amine], the logP is 2.03*.

For the compound `CC(=O)Nc1ccc(Nc2nccc(-c3sc(N(C)C)nc3C(F)(F)F)n2)cc1` [Example 699, N-[4-({4-[2-(dimethylamine)-4-(trifluoromethyl)-1,3-thiazol-5-yl]pyrimidin-2-yl}amino)phenyl]acetamide], the logP is given as 2.58*.

The same data set, now with this note: HPLC, reversed-phase C 18, EEC Directive 79/831 Annex V.A8; method *: 40° C., 0.1% aqueous formic acid and acetonitrile, linear gradient 10% to 95% acetonitrile.
In the case of `Cc1nc2c(s1)-c1nc(Nc3cccc(O)c3)ncc1CC2` [Example 126, 3-[(2-methyl-4,5-dihydro[1,3]thiazole[4,5-h]quinazolin-8-yl)amino]phenol], the logP is given as 1.77*.

The data set is the same for the next values; noted with them: logP, * HPLC reversed-phase C18, 40° C., mobile phase 0.1% aqueous formic acid and acetonitrile, linear gradient 10% to 95% acetonitrile.
Consider `CCc1nc(C)c(-c2ccnc(Nc3ccc(OC)cc3)n2)s1` [Example 789, 4-(2-ethyl-4-methyl-1,3-thiazol-5-yl)-N-(4-methoxyphenyl)pyrimidine-2-amine], for which the chromatographic logP was 2.78.

Compound `COc1cc(Nc2nccc(-c3sc(C)nc3C(F)F)n2)cc(OC)c1OC` [Example 708, 4-[4-(difluoromethyl)-2-methyl-1,3-thiazol-5-yl]-N-(3,4,5-trimethoxyphenyl)pyrimidine-2-amine] had a chromatographic logP of 2.61.

Consider `Cc1nc(C2CC2)sc1-c1ccnc(Nc2ccc(N(C)C)cc2)n1` [Example 555, N′-[4-(2-cyclopropyl-4-methyl-1,3-thiazol-5-yl)pyrimidin-2-yl]-N,N-dimethylbenzene-1,4-diamine], for which the chromatographic logP was 1.63.

Consider `Cc1nc(C2CC2)sc1-c1ccnc(Nc2cccc(CN)c2)n1` [Example 537, N-[3-(aminomethyl)phenyl]-4-(2-cyclopropyl-4-methyl-1,3-thiazol-5-yl)pyrimidine-2-amine], for which the chromatographic logP came out at 1.45.

Compound `CCc1nc(C)c(-c2ccnc(Nc3ccc(Cl)cc3)n2)s1` [Example 463, N-(4-chlorophenyl)-4-(2-ethyl-4-methyl-1,3-thiazol-5-yl)pyrimidine-2-amine] gave a chromatographic logP of 3.72.

Compound `COCCNc1nc(C)c(-c2ccnc(Nc3cccc([N+](=O)[O-])c3)n2)s1` [Example 781, 4-{2-[(2-methoxyethyl)amino]-4-methyl-1,3-thiazol-5-yl}-N-(3-nitrophenyl)pyrimidine-2-amine] showed a chromatographic logP of 1.97.

On to `CCc1nc(C)c(-c2ccnc(N(C(C)=O)c3ccccc3)n2)s1` [Example 668, N-[4-(2-ethyl-4-methyl-1,3-thiazol-5-yl)pyrimidin-2-yl]-N-phenylacetamide], for which the chromatographic logP was determined as 2.33.

`Cc1nc(C)c(-c2ccnc(Nc3ccc(N(C)C)c(Cl)c3)n2)s1` [Example 674, 2-chloro-N4-[4-(2,4-dimethyl-1,3-thiazol-5-yl)pyrimidin-2-yl]-N1,N1-dimethylbenzene-1,4-diamine]: the chromatographic logP worked out at 2.

For `COCCNc1nc(C)c(-c2ccnc(Nc3ccc(OC)c(Cl)c3)n2)s1` [Example 804, N-(3-chloro-4-methoxyphenyl)-4-{2-[(2-methoxyethyl)amino]-4-methyl-1,3-thiazol-5-yl}pyrimidine-2-amine], the chromatographic logP was found to be 1.96.

With `Cc1nc(C)c(-c2ccnc(Nc3ccc(F)c(F)c3)n2)s1` [Example 756, N-(3,4-difluorophenyl)-4-(2,4-dimethyl-1,3-thiazol-5-yl)pyrimidine-2-amine], the chromatographic logP stood at 2.99.

The data set is the same for the next values; noted with them: logP, values marked *: HPLC on reversed-phase C 18, 40° C., mobile phase 0.1% aqueous formic acid and acetonitrile, linear gradient 10% to 95% acetonitrile.
The compound `Cc1nc(C(C)C)sc1-c1ccnc(Nc2cccnc2)n1` [Example 919, 4-(2-isopropyl-4-methyl-1,3-thiazol-5-yl)-N-pyridin-3-ylpyrimidine-2-amine] displayed a chromatographic logP of 1.51.

Consider `CCc1nc(C)c(-c2ccnc(Nc3ccc(C(=O)OCCOC)cc3)n2)s1` [Example 881, 2-methoxyethyl-4-{[4-(2-ethyl-4-methyl-1,3-thiazol-5-yl)pyrimidin-2-yl]amino}benzoate], for which the chromatographic logP turned out to be 2.91.

Turning to `COCCNc1nc(C)c(-c2ccnc(Nc3ccc(F)cc3F)n2)s1` [Example 832, N-(2,4-difluorophenyl)-4-{2-[(2-methoxyethyl)amino]-4-methyl-1,3-thiazol-5-yl}pyrimidine-2-amine], the chromatographic logP was determined as 1.99.

`Cc1nc(C(C)C)sc1-c1nc(Nc2cccc(Cl)c2)ncc1Br` [Example 922, 5-bromo-N-(3-chlorophenyl)-4-(2-isopropyl-4-methyl-1,3-thiazol-5-yl)pyrimidine-2-amine] came in with a chromatographic logP of 4.9.

As to `CC(=O)Nc1cccc(Nc2nccc(-c3sc(C(C)C)nc3C)n2)c1` [Example 818, N-(3-{[4-(2-isopropyl-4-methyl-1,3-thiazol-5-yl)pyrimidin-2-yl]amino}phenyl)acetamide], the chromatographic logP is 2.26.

For the compound `CCc1nc(C)c(-c2nc(Nc3ccccc3)ncc2Br)s1` [Example 902, 5-bromo-4-(2-ethyl-4-methyl-1,3-thiazol-5-yl)-N-phenylpyrimidine-2-amine], the chromatographic logP worked out at 3.82.

Turning to `COCCCNc1nc(C)c(-c2ccnc(Nc3ccc(N4CCCC4=O)cc3)n2)s1` [Example 856, 1-{4-[(4-{2-[(3-methoxypropyl)amino]-4-methyl-1,3-thiazol-5-yl}pyrimidin-2-yl)amino]phenyl}pyrrolidin-2-one], the chromatographic logP amounted to 1.57.
